Where two headings read alike, the source gives them in different places.
What was measured:
[1] = target: PLK-1 (Homo sapiens, UniProt P53350); experiment: Kinase assay PLK-1; assay type: biochemical
Protocol: (§1) Kinase assays. […] This was achieved by measurement of incorporation of radioactive phosphate from ATP into appropriate polypeptide substrates. Recombinant protein kinases and kinase complexes were produced or obtained commercially. Assays were performed using 96-well plates and appropriate assay buffers (typically 25 mM β-glycerophosphate, 20 mM MOPS, 5 mM EGTA, 1 mM DTT, 1 mM […], pH 7.4), into which were added 2-4 μg of active enzyme with appropriate substrates. The reactions were initiated by addition of Mg/ATP mix (15 mM MgCl2+100 μM ATP with 30-50 kBq per well of [γ-^32P]-ATP) and mixtures incubated as required at 30° C. Reactions were stopped on ice, followed by filtration through p81 filterplates or GF/C filterplates (Whatman Polyfiltronics, Kent, UK). After washing 3 times with 75 mM aq orthophosphoric acid, plates were dried, scintillant added and incorporated radioactivity measured in a scintillation counter (TopCount, Packard Instruments, Pangbourne, Berks, UK). Compounds for kinase assay were made-up as 10 mM stocks in DMSO and diluted into 10% DMSO inrassay buffer.

[2] = target: PKCα (protein kinase C α) (Homo sapiens, UniProt P17252); experiment: Kinase assay PKCα; assay type: biochemical; settings: Table 3 selectivity panel; read-out: Kinase specificity IC50 PKCα
Protocol: as §1

[3] = target: SAPK2a (stress-activated protein kinase 2a) (Homo sapiens, UniProt Q16539); experiment: Kinase assay SAPK2a; assay type: biochemical; settings: Table 3 selectivity panel; read-out: Kinase specificity IC50 SAPK2a
Protocol: as §1

[4] = Compound cytotoxicity in PBMCs (MTS); assay type: cell-based; settings: human, concentration decreasing cell viability by 50%, read-out: PBMC TC50
Protocol: Representative compounds of the present invention were tested for antiviral activity against HIV-1 in human peripheral blood mononuclear cells (PBMCs) using the clinical paediatric HIV strain RoJo or WeJo. PBMCs were cultured under conditions which promote cell survival and HIV replication. Antiviral activity was tested for from 6-9 log10 serial dilutions of a 100 μM compound stock solution in DMSO.
Fresh PBMCs, seronegative for HIV and HBV, were isolated from screened donors (Interstate Blood Bank, Inc. Memphis, Term.). Cells were pelleted/washed 2-3 times by low speed centrifugation and re-suspension in PBS to remove contaminating platelets. […] Banded PBMCs were gently aspirated from the resulting interface and subsequently washed with PBS by low speed centrifugation. After the final wash, cells were enumerated by trypan blue exclusion and re-suspended in RPMI 1640 supplemented with fetal bovine serum (FBS), and L-glutamine, Phytohemagglutinin (PHA-P, Sigma). The cells were allowed to incubate at 37° C. After incubation, PBMCs were centrifuged and resuspended in RPMI 1640 with FBS, L-glutamine, penicillin, streptomycin, gentamycin, and recombinant human IL-2 (R&D Systems, Inc). IL-2 is included in the culture medium to maintain the cell division initiated by the PHA mitogenic stimulation. PBMCs were maintained in this with bi-weekly medium changes until used in the assay protocol. Cells were kept in culture for a maximum of two weeks before being deemed too old for use in assays and discarded. Monocytes were depleted from the culture as the result of adherence to the tissue culture flask.
For the standard PBMC assay, PHA-P stimulated cells from at least two normal donors were pooled, diluted and plated in the interior wells of a 96-well round bottom microplate. Pooling of mononuclear cells from more than one donor was used to minimise the variability observed between individual donors, which results from quantitative and qualitative differences in HIV infection and overall response to the PHA and IL-2 of primary lymphocyte populations. Each plate contained virus/cell control wells (cells plus virus), experimental wells (drug plus cells plus virus) and compound control wells (drug plus media […], necessary for MTS monitoring of cytotoxicity). Since HIV-1 is not cytopathic to PBMCs, this allows the use of the same assay plate for both antiviral activity and cytotoxicity measurements. Test drug dilutions were prepared in microtiter tubes and each concentration was placed in appropriate wells using the standard format. A predetermined dilution of virus stock was placed in each test well (final MOI≅0.1). The PBMC cultures were maintained for seven days following infection at 37° C., 5% CO2. After this period, cell-free supernatant samples were collected for analysis of reverse transcriptase activity and/or HIV p24 content. Following removal of supernatant samples, compound cytotoxicity was measured by addition of MTS to the plates for determination of cell viability. Wells were also examined microscopically and any abnormalities were noted.

[5] = test system: MCF-7; experiment: 72-h MTT cytotoxicity assay MCF-7; assay type: cell-based; settings: Homo sapiens, MCF7, 72 h; Table 5; Breast
Protocol: (§2) MTT cytotoxicity assay. […] Standard 72-h MTT (thiazolyl blue; 3-[4,5-dimethylthiazol-2-yl]-2,5-diphenyltetrazolium bromide) assays were performed (Haselsberger, K.; Peterson, D. C.; Thomas, D. G.; Darling, J. L. Anti Cancer Drugs 1996, 7, 331-8; Loveland, B. E.; Johns, T. G.; Mackay, I. R.; Vaillant, F.; Wang, Z. X.; Hertzog, P. J. Biochemistry International 1992, 27, 501-10). In short: cells were seeded into 96-well plates according to doubling time and incubated overnight at 37° C. Test compounds were made up in DMSO and a 1/3 dilution series prepared in 100 μL cell media, added to cells (in triplicates) and incubated for 72 ho at 37° C. MTT was made up as a stock of 5 mg/mL in cell media and filter-sterilised. Media was removed from cells followed by a wash with 200 μL PBS.
(§3) MTT solution was then added at 20 μL per well and incubated in the dark at 37° C. for 4 h. MTT solution was removed and cells again washed with 200 μL PBS. MTT dye was solubilised with 200 μL per well of DMSO with agitation.

[6] = test system: Hela; experiment: 72-h MTT cytotoxicity assay Hela; assay type: cell-based; settings: Homo sapiens, Table 5, Cervix
Protocol: as §2, §3

[7] = test system: SKUT-1B; experiment: 72-h MTT cytotoxicity assay SKUT-1B; assay type: cell-based; settings: Homo sapiens, Skut1B, Table 5, Leiomyosarcoma
Protocol: as §2, §3

[8] = test system: SKUT-1; experiment: 72-h MTT cytotoxicity assay SKUT-1; assay type: cell-based; settings: Homo sapiens, SK-UT-1, 72 h; Table 5; Leiomyosarcoma
Protocol: as §2, §3

[9] = test system: CCRF-CEM; experiment: 72-h MTT cytotoxicity assay CCRF-CEM; assay type: cell-based; settings: Homo sapiens, Table 5, Leukemia
Protocol: as §2, §3

[10] = test system: nci-H460; experiment: 72-h MTT cytotoxicity assay nci-H460; assay type: cell-based; settings: Homo sapiens, NCI-H460, 72 h; Table 5; Lung
Protocol: as §2, §3

[11] = test system: SK-N-MC; experiment: 72-h MTT cytotoxicity assay SK-N-MC; assay type: cell-based; settings: Homo sapiens, Table 5, Neuroblastoma
Protocol: as §2, §3

[12] = test system: Messa-Dx5; experiment: 72-h MTT cytotoxicity assay Messa-Dx5; assay type: cell-based; settings: Homo sapiens, MES-SA/Dx5, 72 h; Table 5; Uterine
Protocol: as §2, §3

[13] = test system: Hs27; experiment: 72-h MTT cytotoxicity assay Hs27; assay type: cell-based; settings: Homo sapiens, HS27, 72 h; Table 5; Foreskin fibroblast (non-transformed)
Protocol: as §2, §3

[14] = Table 2, read-out: Kinase Inhibition IC50 PLK-1
[15] = Table 3 selectivity panel, read-out: Kinase specificity IC50 PLK1

Chain of SAPK2a (stress-activated protein kinase 2a) (Q16539 whole entry, species assumed): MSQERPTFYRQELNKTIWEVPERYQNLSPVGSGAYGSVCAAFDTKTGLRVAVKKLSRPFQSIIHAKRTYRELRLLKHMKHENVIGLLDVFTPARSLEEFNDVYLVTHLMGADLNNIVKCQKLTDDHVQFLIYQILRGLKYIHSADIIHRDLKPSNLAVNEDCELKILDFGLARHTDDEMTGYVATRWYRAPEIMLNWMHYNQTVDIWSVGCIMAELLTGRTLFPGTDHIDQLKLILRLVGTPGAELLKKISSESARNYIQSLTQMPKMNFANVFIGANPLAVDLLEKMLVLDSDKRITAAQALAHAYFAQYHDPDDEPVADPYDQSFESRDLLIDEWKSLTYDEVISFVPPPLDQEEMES
Chain of PLK-1 (P53350 whole entry): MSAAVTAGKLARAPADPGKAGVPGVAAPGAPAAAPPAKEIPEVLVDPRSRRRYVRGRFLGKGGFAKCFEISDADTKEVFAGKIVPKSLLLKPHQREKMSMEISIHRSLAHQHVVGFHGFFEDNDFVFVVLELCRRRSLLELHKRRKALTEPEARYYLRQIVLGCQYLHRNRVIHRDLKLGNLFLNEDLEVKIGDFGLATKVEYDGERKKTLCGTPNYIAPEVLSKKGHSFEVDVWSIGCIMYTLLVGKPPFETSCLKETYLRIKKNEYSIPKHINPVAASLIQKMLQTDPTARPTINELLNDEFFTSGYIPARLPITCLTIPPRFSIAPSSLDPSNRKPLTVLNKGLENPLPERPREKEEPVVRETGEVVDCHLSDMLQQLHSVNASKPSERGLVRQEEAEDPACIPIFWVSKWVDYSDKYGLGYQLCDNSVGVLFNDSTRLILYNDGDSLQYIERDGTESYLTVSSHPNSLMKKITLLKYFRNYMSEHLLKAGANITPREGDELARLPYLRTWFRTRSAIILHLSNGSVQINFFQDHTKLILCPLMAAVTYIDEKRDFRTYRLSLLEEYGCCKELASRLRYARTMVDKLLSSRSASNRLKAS

Structure (SMILES) | IC50 [1, 14] | IC50 [1, 15] | IC50 [2] | IC50 [3] | CC50 at 7 days [4] | IC50 [5] | IC50 [6] | IC50 [7] | IC50 [8] | IC50 [9] | IC50 [10] | IC50 [11] | IC50 [12] | IC50 [13]
CNc1nc(C)c(-c2ccnc(Nc3ccc(N4CCOCC4)cc3)n2)s1 [Compound 3, [4-(2-N-Methylamino-4-methyl-thiazol-5-yl)-pyrimidin-2-yl]-(4-morpholinophenyl)-amine] | > 150000 nM | > 100000 nM | > 100000 nM | > 100000 nM | > 100000 nM |  |  |  |  |  |  |  |  | 
CC[C@@H](N)C(=O)Nc1nc(C)c(-c2ccnc(Nc3cccc([N+](=O)[O-])c3)n2)s1 [Compound 16, (2R)-2-Amino-N-{4-methyl-5-[2-(3-nitro-phenylamino)-pyrimidin-4-yl]-thiazol-2-yl}-butyramide] | > 150000 nM | > 100000 nM | 53000 nM | > 100000 nM |  | 390 nM | 400 nM | 100 nM | 200 nM | 1100 nM | 300 nM | 400 nM | 100 nM | > 5000 nM
CCNc1nc(C)c(-c2ccnc(Nc3ccc(N4CCOCC4)cc3)n2)s1 [Compound 4, [4-(2-Ethylamino-4-methyl-thiazol-5-yl)-pyrimidin-2-yl]-(4-morpholin-4-yl-phenyl)-amine] | > 100000 nM |  |  |  | 9400 nM |  |  |  |  |  |  |  |  | 
Cc1nc(C)c(-c2ccnc(Nc3ccc(NC(=O)CN4CCCC4)cc3)n2)s1 [Compound 53, N-{4-[4-(2,4-Dimethyl-thiazol-5-yl)-pyrimidin-2-ylamino]-phenyl}-2-pyrrolidin-1-yl-acetamide] |  |  |  |  | 1600 nM |  |  |  |  |  |  |  |  | 
Cc1nc(N)sc1-c1ccnc(Nc2ccc(N3CCOCC3)cc2)n1 [Compound 1, [4-(2-Amino-4-methyl-thiazol-5-yl)-pyrimidin-2-yl]-(4-morpholin-4-yl-phenyl)-amine] |  |  | > 100000 nM | > 100000 nM | 6100 nM | > 5000 nM | 1800 nM |  | 900 nM | 900 nM | 200 nM | 300 nM | 200 nM | > 5000 nM
Cc1nc(NC(=O)[C@H](N)[C@@H](C)O)sc1-c1ccnc(Nc2cccc([N+](=O)[O-])c2)n1 [Compound 15, (2R,3R)-2-Amino-3-hydroxy-N-{4-methyl-5-[2-(3-nitro-phenylamino)-pyrimidin-4-yl]-thiazol-2-yl}-butyramide] | > 150000 nM | > 100000 nM | > 100000 nM | > 100000 nM | 2400 nM | 900 nM | 700 nM | 200 nM | 900 nM | 2600 nM | 1200 nM | 500 nM | 400 nM | 1700 nM
CNc1nc(C)c(-c2ccnc(Nc3ccc(N4CCN(Cc5ccccc5)CC4)cc3)n2)s1 [Compound 11, [4-(4-Benzyl-piperazin-1-yl)-phenyl]-[4-(4-methyl-2-methylamino-thiazol-5-yl)-pyrimidin-2-yl]-amine] | 19000 nM | 19000 nM | > 100000 nM | > 100000 nM |  | 1900 nM | 6200 nM | 300 nM | 800 nM | 500 nM | 700 nM | 600 nM | 200 nM | 19000 nM
